Source: US4299836A, “Novel ergol-8-ene and ergolin compounds and process for preparing same” (Richter Gedeon Vegyeszeti Gyar Rt., priority 1979, dated 1981)
Structures can show the parent of a compound that is named as a salt. Where two headings read alike, the source gives them in different places.

Key:
serotonine receptor [1] = biological target: T1, serotonine receptor (Rattus norvegicus, UniProt P14842); assay: in vivo; assay type: in vivo; set-up: For the in vivo studies the rat paw-oedema test was applied; from tissue; host or cells: live rat, paw; details: for ED50: read-out: In vivo test ED50, 50% inhibition of serotonine induced oedema
serotonine receptor [2] = biological target: T1, serotonine receptor; set-up: The in vitro antiserotonine activity was determined in rat uterine horn preparation; from tissue; host or cells: rat uterine horn
[3] = hypotensive activity in anesthetized cats; assay type: in vivo
Description: The measurements were performed in cats anesthetized with 30 mg/kg of Pentothal (5-ethyl-5-(1-methylbutyl)-2-thiobarbituric acid sodium salt). The left femoral artery was cannulated; the arterial blood pressure was measured by means of Statham P 23 pressure transducer and registrated by a Hellige polygraph. The test compounds were injected into the right femoral vein. (Method: Mc Leod L. J., in: Pharmacological Experiments on Intact Preparations, E. S. Livingstone, Edinburgh and London, 1970, pp. 65-66.)

[4] = oral blood pressure lowering in awake spontaneously hypertensive rats; assay type: in vivo; details: 1.0 to 2.5 mg/kg orally
Text: A group of the new compounds according to the invention exerts hypotensive effect on anesthetized animals in low dosages. […] The hypotensive effect of the compounds is accompanied by bradycardia; they inhibit the vasomotor reflexes acting both at central and peripheral target structures. The mechanism of hypotensive effect is different in certain aspects from that of the hydrogenated ergot alkaloids; namely, the new derivatives have no or only negligible adrenolytic activity. Thus, the hypotensive effect is mainly due to an action exerted on the vasomotor center. These derivatives lower the blood pressure also in hypertensive animals upon oral administration. […] The compounds according to the invention exert powerful hypotensive action also in cats.

[5] = tested on: reserpine-induced hypotermy; assay: antagonism of reserpine-induced hypotermy in mice (antidepressant activity); assay type: in vivo; details: for antidepressant efficacy/potency compared with Imipramine: mouse, in vivo
Description: The antidepressant activity was assessed by measuring the antagonism of reserpine-induced hypotermy in mice. The change in body temperature (Δt) was detected as compared to the control animals (B. M. Askew, Life Sci. 10, 725 /1963/). The acute toxicity data /LD50 / were determined on mice; the evaluation was performed 24 hours after the administration of the compounds (J. T. Litchfield and F. Wilcoxon, J. Pharmacol. exp. Ther. 96, 99 /1949/).

dopamine receptor [6] = assay: dopamine receptor stimulant activity in vitro, electrically stimulated mouse vas deferens preparation; details: for IC50: electrically stimulated mouse vas deferens, read-out: In vitro test Mouse vas deferens ID50
Description: The dopamine receptor stimulant activities in vitro were determined on electrically stimulated mouse vas deferens preparation (J. Hughes et al., Brit. J. Pharmacol. 53, 371-381 /1975/).

dopamine receptor [7] = assay: antagonism of narcosis-potentiating effect of Haloperidol in rats; assay type: in vivo
Description: The in vivo measurements were performed on rats. The antagonism of narcosis-(Hexobarbital Na, 50 mg/kg i.v.)-potentiating effect of Haloperidol (5 mg/kg i.p.) was determined according to Borsy et al. (Acta Physiol. 27, 65-80 /1965/).

[8] = acute toxicity (LD50) in mice; details: mouse, in vivo, evaluated 24 hours after administration

T1 sequence (P14842 whole entry): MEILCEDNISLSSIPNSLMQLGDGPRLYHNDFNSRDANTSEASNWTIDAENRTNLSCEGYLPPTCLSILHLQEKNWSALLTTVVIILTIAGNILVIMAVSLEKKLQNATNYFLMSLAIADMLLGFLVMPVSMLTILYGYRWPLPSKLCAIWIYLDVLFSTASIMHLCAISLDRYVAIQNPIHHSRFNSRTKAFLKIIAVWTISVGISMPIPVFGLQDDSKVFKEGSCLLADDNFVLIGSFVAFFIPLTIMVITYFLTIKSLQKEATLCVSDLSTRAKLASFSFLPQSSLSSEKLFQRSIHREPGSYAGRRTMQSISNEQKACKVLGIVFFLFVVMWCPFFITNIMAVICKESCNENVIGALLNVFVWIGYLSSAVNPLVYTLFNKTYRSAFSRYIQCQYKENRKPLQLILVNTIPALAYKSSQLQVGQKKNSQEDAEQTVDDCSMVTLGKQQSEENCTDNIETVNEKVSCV

| Structure (SMILES) | ED50 (serotonine receptor [1]; po) [mg/kg] | ED50 (serotonine receptor [1]; sc) [mg/kg] | IC50 (serotonine receptor [2]) [µM] | Duration of action ([3]; 0.5 mg/kg i.v.) [h] | Duration of action ([3]; 0.1 mg/kg i.v.) [h] | also measured |
| --- | --- | --- | --- | --- | --- | --- |
| CN1CC(CN(CCN=[N+]=[N-])S(C)(=O)=O)CC2c3cccc4c3c(cn4C)CC21 (centres unmarked) [Example 10, 1,6-dimethyl-8-[(N-methanesulfonyl, N-azidoethyl)-aminomethyl]-ergoline hydrogen maleate] | 0.47 | 0.042 | 0.0024 | 1.5 |  | potency compared with Methysergide upon oral administration (serotonine receptor [1]; in vivo, po): more potent than Methysergide |
| CN1CC(CN(CCOS(C)(=O)=O)S(C)(=O)=O)CC2c3cccc4c3c(cn4C)CC21 (centres unmarked) [Example 9, 1,6-dimethyl-8-[(N-methanesulfonyl, N-methanesulfonyloxy-ethyl)-aminomethyl]-ergoline hydrogen maleate] | 1 | 0.082 | 0.106 | 1 |  |  |
| CN1CC(CN(CCN=[N+]=[N-])S(C)(=O)=O)CC2c3cccc4c3c(c(Br)n4C)CC21 (centres unmarked) [Example 11, 2-bromo-1,6-dimethyl-8-[(N-methanesulfonyl, N-azidoethyl)-aminomethyl]-ergoline tartarate] | 2 | 0.3 | 0.101 | 2 |  | Duration of action ([3]; 0.25 mg/kg i.v.): 2 h |
| CN1C[C@H](C(=O)N[C@]2(C)O[C@@]3(O)[C@@H]4CCCN4C(=O)[C@H](Cc4ccccc4)N3C2=O)C[C@@H]2c3cccc4[nH]cc(c34)C[C@H]21 [Dihydroergotamine, reference compound] |  |  |  |  |  | Duration of action ([3]; 0.2 mg/kg i.v.): 0.5 h |
| CN1CC(CN(CCN=[N+]=[N-])S(C)(=O)=O)=CC2c3cccc4c3c(cn4C)CC21 (centres unmarked) [Example 4, 1,6-Dimethyl-8-[(N-methanesulfonyl, N-azidoethyl/aminomethyl]-ergol-8-ene tartarate] | 3.7 | 0.22 | 0.00121 | 2 | 1.5 |  |
| CN1CC(CN(CCN=[N+]=[N-])S(C)(=O)=O)CC2c3cccc4[nH]cc(c34)CC21 (centres unmarked) [Example 7, 6-Methyl-8-[(N-methanesulfonyl, N-azidoethyl)-aminomethyl]-ergoline hydrogen maleate] | 1.7 | 0.29 | 0.00248 | 1 |  |  |
| CN1CC(CN(CCN=[N+]=[N-])S(C)(=O)=O)=CC2c3cccc4[nH]c(Br)c(c34)CC21 (centres unmarked) [Example 3, 2-Bromo-6-methyl-8-[(N-methanesulfonyl, N-azidoethyl/aminomethyl]-ergol-8-ene hydrogen maleate] |  |  |  | 1.5 | 1.5 |  |
| CN1CC(CN(CCN=[N+]=[N-])S(C)(=O)=O)=CC2c3cccc4[nH]cc(c34)CC21 (centres unmarked) [Example 2, 6-Methyl-8-[(N-methanesulfonyl, N-azidoethyl)-aminomethyl]-ergol-8-ene hydrogen maleate] |  |  |  | 2 | 2 | blood pressure lowering (in words) [4]: lowered the blood pressure for several hours; Antidepressant activity, Δt (change in body temperature vs control) ([5]; 10 mg/kg p.o., reserpine-induced hypotermy, mice): +6.5 °C; antidepressant efficacy/potency compared with Imipramine [5]: higher than that of Imipramine; IC50 (dopamine receptor [6]): 0.05 µM; dopamine stimulant efficacy compared with Bromocryptine in vitro (dopamine receptor [6]; in vitro): close to that of Bromocryptine; Antagonism of Haloperidol effect in rats, Inhibition (dopamine receptor [7]; 3.0 mg/kg s.c.): 68.7%; Antagonism of Haloperidol effect in rats, Inhibition (dopamine receptor [7]; 10.0 mg/kg p.o.): 38.9%; Antagonism of Haloperidol effect in rats, Inhibition (dopamine receptor [7]; 10.0 mg/kg s.c.): 92.2%; Antagonism of Haloperidol effect in rats, Inhibition (dopamine receptor [7]; 30.0 mg/kg p.o.): 48.2%; dopamine stimulant potency compared with Bromocryptine in vivo (dopamine receptor [7]; in vivo): higher than that of the reference substance; pharmacodynamic effects upon oral administration (in words) (dopamine receptor [7]; oral): could also be detected upon oral administration; LD50 at 24 h ([8]; ip): 100 mg/kg; LD50 at 24 h ([8]; po): 100 mg/kg |
| CC(C)C[C@H]1C(=O)N2CCC[C@H]2[C@]2(O)O[C@](NC(=O)[C@@H]3C=C4c5cccc6[nH]c(Br)c(c56)C[C@H]4N(C)C3)(C(C)C)C(=O)N12 [Bromocryptine, 2-bromo-α-ergocryptine, reference compound] |  |  |  |  |  | IC50 (dopamine receptor [6]): 0.02 µM; Antagonism of Haloperidol effect in rats, Inhibition (dopamine receptor [7]; 10.0 mg/kg p.o.): 25.9%; Antagonism of Haloperidol effect in rats, Inhibition (dopamine receptor [7]; 10.0 mg/kg s.c.): 26.2%; Antagonism of Haloperidol effect in rats, Inhibition (dopamine receptor [7]; 30.0 mg/kg p.o.): 54.8%; Antagonism of Haloperidol effect in rats, Inhibition (dopamine receptor [7]; 30.0 mg/kg s.c.): 34.2% |
| CN1CC(CN(CCOS(C)(=O)=O)S(C)(=O)=O)=CC2c3cccc4[nH]cc(c34)CC21 (centres unmarked) [Example 1, 6-Methyl-8-[(N-methanesulfonyl, N-methanesulfonyloxyethyl)-aminomethyl]-ergol-8-ene hydrogen maleate] |  |  |  | 1.5 to 2 |  | antidepressant efficacy/potency compared with Imipramine [5]: equal to; LD50 at 24 h ([8]; ip): 100 mg/kg; LD50 at 24 h ([8]; po): 100 mg/kg |
